Data from patent US11618772B2 (Kineta Chronic Pain, LLC, priority 2014, dated 2023).

C[C@@H](O)[C@@H]1NC(=O)[C@@H]2CSSC[C@@H](C(=O)N[C@@H](Cc3ccc(O)cc3)C(N)=O)NC(=O)[C@H](CCC(N)=O)NC(=O)[C@H](Cc3ccc(O)c(I)c3)NC(=O)[C@H](CCCNC(N)=O)NC(=O)[C@H](CSSC[C@H](NC(=O)CN)C(=O)N2)NC(=O)[C@H](CCCNC(=N)N)NC(=O)[C@@H]2CCCN2C(=O)[C@H](CC(=O)O)NC1=O [CSP-4-NH2, GCCTDPRCX11X12QCY-amide]
stability in human plasma (Citrate): increased stability compared to CSP-4
